Results: patent publication US9174980B2, “Heterocyclic compounds as inhibitors of leukotriene production” (Boehringer Ingelheim International GmbH, priority 2012, dated 2015)

How the values were obtained:
[1] = target: T1, recombinant human FLAP protein (Homo sapiens, UniProt P20292); test: FLAP binding assay (Scintillation Proximity Assay, displacement of [125I]L-691,831); details: read-out: Human FLAP SPA Binding (IC50 nM)
T1 construct: made in house; host or cells: Sf9 insect cells (membrane fraction, 100,000 x g pellet)
T1 sequence (P20292 1-161): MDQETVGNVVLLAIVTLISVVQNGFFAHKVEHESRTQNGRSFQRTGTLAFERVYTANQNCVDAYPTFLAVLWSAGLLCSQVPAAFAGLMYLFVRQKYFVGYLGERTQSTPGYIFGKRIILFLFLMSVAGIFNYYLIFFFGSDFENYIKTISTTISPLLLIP
Experimental: Compounds are assessed for the ability to bind to FLAP in a binding assay that measures compound-specific displacement of an iodinated (^125I) FLAP inhibitor via a Scintillation Proximity Assay format (adapted from S. Charleson et al., Mol. Pharmacol., 1992, 41, 873-879).
Cell pellets produced from sf9 insect cells expressing recombinant human FLAP protein are resuspended in buffer A [15 mM Tris-HCl (pH 7.5), 2 mM MgCl2, 0.3 mM EDTA, 1 mM PMSF]. The cells are lysed with a Dounce homogenizer and the material is centrifuged at 10,000×g for 10 minutes. The supernatant is then collected and centrifuged at 100,000×g for 60 minutes. To prepare membrane protein for an assay, an aliquot of the 100,000×g pellet is resuspended in 1 ml of buffer A, Dounce homogenized, and finally subjected to polytron mixing (30 seconds). Membrane protein (25 μl, 5 μg) is mixed with WGA SPA beads (Amersham) and stirred for 1 h. To an assay plate (Perkin Elmer FlexiPlate) is added 25 μl of test compound prepared in Binding buffer [100 mM Tris (pH 7.5), 140 mM NaCl, 5% glycerol, 2 mM EDTA, 0.5 mM TCEP, 0.05% Tween 20], 25 μl of [^125I]L-691,831 (an iodinated analog of MK-591, Charleson et al. Mol. Pharmacol., 41, 873-879, 1992) and finally 50 μl of the bead/protein mixture. (final concentrations: beads, 200 μg/well; protein, 5 μg/well; [^125I] probe, 0.08 nM/well (17 nCi/well). The plates are shaken for 2 h before reading on a Microbeta plate reader. Non-specific binding is determined by the addition of 10 μM cold L-691,831 compound.

[2] = system: synthesis of LTB4 in human whole blood; test: Human whole blood assay (calcimycin-stimulated LTB4 synthesis); assay type: cell-based; details: Homo sapiens; read-out: Human Whole Blood LTB4 Assay for FLAP (IC50 nM)
Experimental: Compounds are additionally tested in a human whole blood assay to determine their ability to inhibit the synthesis of LTB4 in a cellular system. Compounds are combined with heparinized human whole blood and incubated for 15 minutes at 37° C. Calcimycin (20 μM final, prepared in phosphate-buffered saline, pH 7.4) is then added and the mixture is incubated for another 30 minutes at 37° C. The samples are centrifuged for 5 min at low speed (1500×g) and the plasma layer is removed. Plasma LTB4 concentrations are then measured using an antibody-based homogenous time-resolved fluorescence method (CisBio, Bedford, Mass.).

Compound	IC50 [1]	IC50 [2]
COCC(C)(c1ccc(-c2cnc(N)nc2)cc1)c1cn(CC(=O)O)c2ncccc12 (stereo not shown) [Example 55, (3-{2-[4-(2-aminopyrimidin-5-yl)phenyl]-1-methoxypropan-2-yl}-1H-pyrrolo[2,3-b]pyridin-1-yl)acetic acid]	1100 nM	> 5000 nM
COCC(C)(c1ccc(-c2cnc(N)nc2)cc1)c1cn(C)c2ncccc12 (stereo not shown) [Example 56, 5-{4-[1-methoxy-2-(1-methyl-1H-pyrrolo[2,3-b]pyridin-3-yl)propan-2-yl]phenyl}pyrimidin-2-amine]	160 nM	> 5000 nM
COc1cccc2[nH]cc(C(C)(c3ccc(-c4cnc(N)nc4)cc3)C(C)C)c12 (stereo not shown) [Example 57, 5-{4-[2-(4-methoxy-1H-indol-3-yl)-3-methylbutan-2-yl]phenyl}pyrimidin-2-amine]	37 nM	2600 nM
CC(C)C(C)(c1ccc(-c2cnc(N)nc2)cc1)c1c[nH]c2cccc(F)c12 (stereo not shown) [Example 58, 5-{4-[2-(4-fluoro-1H-indol-3-yl)-3-methylbutan-2-yl]phenyl}pyrimidin-2-amine]	1.1 nM	69 nM
CC(C)C(C)(c1ccc(-c2cnc(N)nc2)cc1)c1c[nH]c2c(F)cccc12 (stereo not shown) [Example 59, 5-{4-[2-(7-fluoro-1H-indol-3-yl)-3-methylbutan-2-yl]phenyl}pyrimidin-2-amine]	0.65 nM	330 nM
CC(C)C(C)(c1ccc(-c2cnc(N)nc2)cc1)c1c[nH]c2cc(F)ccc12 (stereo not shown) [Example 60, 5-{4-[2-(6-fluoro-1H-indol-3-yl)-3-methylbutan-2-yl]phenyl}pyrimidin-2-amine]	0.86 nM	170 nM
CC(C)C(C)(c1ccc(-c2cnc(N)nc2)cc1)c1cc2ccc(F)cc2[nH]1 (stereo not shown) [Example 61, 5-{4-[2-(6-fluoro-1H-indol-2-yl)-3-methylbutan-2-yl]phenyl}pyrimidin-2-amine]	9.3 nM	1200 nM
CC(C)C(C)(c1ccc(-c2cnc(N)nc2)cc1)c1cc2c(F)cccc2[nH]1 (stereo not shown) [Example 62, 5-{4-[2-(4-fluoro-1H-indol-2-yl)-3-methybutan-2-yl]phenyl}pyrimidin-2-amine]	18 nM	2300 nM
CC(C)C(C)(c1ccc(-c2cnc(N)nc2)cc1)c1c[nH]c2ccc(F)cc12 (stereo not shown) [Example 63, 5-{4-[2-(5-fluoro-1H-indol-3-yl)-3-methylbutan-2-yl]phenyl}pyrimidin-2-amine]	3 nM	440 nM
CC(C)C(C)(c1ccc(OCc2ccccn2)cc1)c1c[nH]c2cc(C(=O)O)ccc12 (stereo not shown) [Example 64, 3-[1,2-dimethyl-1-[4-(2-pyridylmethoxy)phenyl]propyl]-1H-indole-6-carboxylic acid]	0.85 nM	1400 nM
CC(C)C(C)(c1ccc(-c2cnc(N)nc2)cc1)c1c[nH]c2cc(-c3nnc(N)o3)ccc12 (stereo not shown) [Example 65, 5-[3-[1-[4-(2-aminopyrimidin-5-yl)phenyl]-1,2-dimethyl-propyl]-1H-indol-6-yl]-1,3,4-oxadiazol-2-amine]	0.57 nM	1800 nM
CC(C)C(C)(c1ccc(-c2ccc(N)nc2)cc1)c1c[nH]c2ccccc12 (stereo not shown) [Example 66, 5-{4-[2-(1H-indol-3-yl)-3-methylbutan-2-yl]phenyl}pyridin-2-amine]	1.2 nM	170 nM
CC(C)C(C)(c1ccc(-c2cnc(N)nc2)cc1)c1c[nH]c2cc(F)c(F)cc12 (stereo not shown) [Example 67, 5-{4-[2-(5,6-difluoro-1H-indol-3-yl)-3-methylbutan-2-yl]phenyl}pyrimidin-2-amine]	3 nM	340 nM

The next lines start with the values.

IC50 [1]	IC50 [2]	Compound
1 nM	> 5000 nM	CC(C)C(C)(c1ccc(-c2cnc(N)nc2)cc1)c1c[nH]c2cc(-c3nnn[nH]3)ccc12 (stereo not shown) [Example 68, 5-(4-[3-methyl-2-[6-(1H-tetrazol-5-yl)-1H-indol-3-yl]butan-2-yl}phenyl)pyrimidin-2-amine]
120 nM	3100 nM	Nc1ncc(-c2ccc(C3(c4nnc(-c5ccccc5)[nH]4)CCOCC3)cc2)cn1 [Example 69, 5-{4-[4-(5-phenyl-4H-1,2,4-triazol-3-yl)tetrahydro-2H-pyran-4-yl]phenyl}pyrimidin-2-amine]
0.9 nM	240 nM	COC(=O)c1ccc2c(C(C)(c3ccc(-c4cnc(N)nc4)cc3)C(C)C)c[nH]c2c1 (stereo not shown) [Example 70, methyl 3-{2-[4-(2-aminopyrimidin-5-yl)phenyl]-3-methylbutan-2-yl}-1H-indole-6-carboxylate]
0.72 nM	1900 nM	CC(C)C(C)(c1ccc(-c2ccc(N)nc2)cc1)c1c[nH]c2cc(-c3nnc(N)o3)ccc12 (stereo not shown) [Example 71, 5-(4-{2-[6-(5-amino-1,3,4-oxadiazol-2-yl)-1H-indol-3-yl]-3-methylbutan-2-yl}phenyl)pyridin-2-amine]
110 nM	2100 nM	Cn1ccc(C(O)(c2ccc(-c3cnc(N)nc3)cc2)C(C)(C)C)n1 (stereo not shown) [Example 72, 1-[4-(2-aminopyrimidin-5-yl)phenyl]-2,2-dimethyl-1-(1-methyl-1H-pyrazol-3-yl)propan-1-ol]
1.3 nM	> 5000 nM	CC(C)C(C)(c1ccc(-c2cnc(N)nc2)cc1)c1cn(Cc2nnn[nH]2)c2ccccc12 (stereo not shown) [Example 73, 5-(4-{3-methyl-2-[1-(1H-tetrazol-5-ylmethyl)-1H-indol-3-yl]butan-2-yl}phenyl)pyrimidin-2-amine]
780 nM	3500 nM	Nc1ncc(-c2ccc(C3(c4n[nH]c(-c5cccnc5)n4)CCOCC3)cc2)cn1 [Example 74, 5-(4-{4-[5-(pyridin-3-yl)-1H-1,2,4-triazol-3-yl]tetrahydro-2H-pyran-4-yl}phenyl)pyrimidin-2-amine]
380 nM	> 5000 nM	Nc1ncc(-c2ccc(C3(c4nc5ccccc5[nH]4)CCOCC3)cc2)cn1 [Example 75, 5-{4-[4-(1H-benzimidazol-2-yl)tetrahydro-2H-pyran-4-yl]phenyl}pyrimidin-2-amine]
1.1 nM	250 nM	CC(C)C(C)(c1ccc(-c2cnc(N)nc2)cc1)c1c[nH]c2c(-c3nnc(N)o3)cccc12 (stereo not shown) [Example 76, 5-(4-{2-[7-(5-amino-1,3,4-oxadiazol-2-yl)-1H-indol-3-yl]-3-methylbutan-2-yl}phenyl)pyrimidin-2-amine]
1.7 nM	640 nM	CC(C)C(C)(c1ccc(-c2cnc(N)nc2)cc1)c1c[nH]c2cc(C(=O)N3CCOCC3)ccc12 (stereo not shown) [Example 77, (3-{2-[4-(2-aminopyrimidin-5-yl)phenyl]-3-methylbutan-2-yl}-1H-indol-6-yl)(morpholin-4-yl)methanone]
1.6 nM	> 5000 nM	CC(C)C(C)(c1ccc(-c2cnc(N)nc2)cc1)c1c[nH]c2cc(C(=O)N3CC(O)C3)ccc12 (stereo not shown) [Example 78, (3-{2-[4-(2-aminopyrimidin-5-yl)phenyl]-3-methylbutan-2-yl}-1H-indol-6-yl)(3-hydroxyazetidin-1-yl)methanone]
8.5 nM	2600 nM	CC(C)C(C)(c1ccc(-c2cnc(N)nc2)cc1)c1c[nH]c2cc(C(=O)N(C)CCO)ccc12 (stereo not shown) [Example 79, 3-{2-[4-(2-aminopyrimidin-5-yl)phenyl]-3-methylbutan-2-yl}-N-(2-hydroxyethyl)-N-methyl-1H-indole-6-carboxamide]
1.6 nM	> 5000 nM	CC(C)C(C)(c1ccc(-c2cnc(N)nc2)cc1)c1c[nH]c2cc(C(=O)N3CCC(O)C3)ccc12 (stereo not shown) [Example 80, (3-{2-[4-(2-aminopyrimidin-5-yl)phenyl]-3-methylbutan-2-yl}-1H-indol-6-yl)(3-hydroxypyrrolidin-1-yl)methanone]
5.1 nM	370 nM	Nc1ncc(-c2ccc(C3(c4c[nH]c5ccccc45)CCC3)cc2)cn1 [Example 81, 5-{4-[1-(1H-indol-3-yl)cyclobutyl]phenyl}pyrimidin-2-amine]
0.94 nM	160 nM	Nc1ncc(-c2ccc(C3(c4c[nH]c5cc(F)ccc45)CCC3)cc2)cn1 [Example 82, 5-{4-[1-(6-fluoro-1H-indol-3-yl)cyclobutyl]phenyl}pyrimidin-2-amine]
5 nM	460 nM	Nc1ncc(-c2ccc(C3(c4c[nH]c5ccc(F)cc45)CCC3)cc2)cn1 [Example 83, 5-{4-[1-(5-fluoro-1H-indol-3-yl)cyclobutyl]phenyl}pyrimidin-2-amine]
